Laboratory results from ChEMBL document CHEMBL4393657, “Tetrazole hybrids and their antifungal activities” (2019).
≈ marks a conversion by molar mass, not a printed value. One block for each molecule: values may come before it.

Legend:
Format in all cases: functional
Nakaseomyces glabratus [1] = assay: Antifungal activity against Candida glabrata NCIM 3236 assessed as reduction in fungal cell growth incubated for 24 hrs by broth microdilution method; settings: NCIM 3236, 24 h
Candida albicans [2] = assay: Antifungal activity against Candida albicans MTCC 227 assessed as reduction in fungal cell growth incubated for 24 hrs by broth microdilution method; settings: MTCC 227, 24 h
Candida tropicalis [3] = assay: Potency index, ratio for MIC of fluconazole to MIC of compound for Antifungal activity against Candida tropicalis NCIM 3110 assessed as reduction in fungal cell growth incubated for 24 hrs by broth microdilution method
Nakaseomyces glabratus [4] = assay: Potency index, ratio for MIC of fluconazole to MIC of compound for antifungal activity against Candida glabrata NCIM 3236 assessed as reduction in fungal cell growth incubated for 24 hrs by broth microdilution method
Candida tropicalis [5] = assay: Antifungal activity against Candida tropicalis NCIM 3110 assessed as reduction in fungal cell growth incubated for 48 hrs by broth microdilution method; settings: NCIM 3110, 48 h
Candida albicans [6] = assay: Antifungal activity against Candida albicans assessed as inhibition zone at 25 ug/ml by disk diffusion method; settings: read-out: IZ
Aspergillus fumigatus [7] = assay: Antifungal activity against Aspergillus fumigatus assessed as inhibition zone at 25 ug/ml by disk diffusion method; settings: read-out: IZ
Aspergillus flavus [8] = assay: Antifungal activity against Aspergillus flavus assessed as inhibition zone at 25 ug/ml by disk diffusion method; settings: read-out: IZ
Aspergillus niger [9] = assay: Antifungal activity against Aspergillus niger assessed as inhibition zone at 25 ug/ml by disk diffusion method; settings: read-out: IZ
Mucor indicus = assay: Antifungal activity against Mucor indicus
Candida albicans [10] = assay: Antifungal activity against Candida albicans
Aspergillus flavus [11] = assay: Antifungal activity against Aspergillus flavus
Aspergillus niger [12] = assay: Antifungal activity against Aspergillus niger
Rhizopus arrhizus = assay: Antifungal activity against Rhizopus arrhizus
Candida albicans [13] = assay: Antifungal activity against Candida albicans assessed as reduction in fungal cell growth incubated for 48 hrs by broth microdilution method
Aspergillus niger [14] = assay: Antifungal activity against Aspergillus niger assessed as reduction in fungal cell growth incubated for 48 hrs by broth microdilution method
Candida albicans [15] = assay: Antifungal activity against Candida albicans ATCC 885653 assessed as inhibition zone at 100 ug/ml incubated for 48 to 72 hrs by agar-diffusion method; settings: read-out: IZ
Talaromyces marneffei = assay: Antifungal activity against Penicillium marneffei assessed as reduction in fungal cell growth incubated for 3 to 4 days by disk diffusion method
Aspergillus fumigatus [16] = assay: Antifungal activity against Aspergillus fumigatus NCIM 902 assessed as reduction in fungal cell growth incubated for 3 to 4 days by disk diffusion method
Aspergillus flavus [17] = assay: Antifungal activity against Aspergillus flavus NCIM 524 assessed as reduction in fungal cell growth incubated for 3 to 4 days by disk diffusion method
[18] = tested on: Trichophyton mentagrophytes; assay: Antifungal activity against Trichophyton mentagrophytes assessed as reduction in fungal cell growth incubated for 3 to 4 days by disk diffusion method
Candida albicans [19] = assay: Antifungal activity against Candida albicans assessed as reduction in fungal cell growth incubated for 24 hrs by broth microdilution method
Candida albicans [20] = assay: Antifungal activity against Candida albicans NCCS 3471 assessed as inhibition zone at 500 ug/ml by disk diffusion method; settings: read-out: IZ
Aspergillus niger [21] = assay: Antifungal activity against Aspergillus niger NCCS 1196 assessed as inhibition zone at 500 ug/ml by disk diffusion method; settings: read-out: IZ

SMILES: Cc1cccc2c(=O)c(OCc3nnn[nH]3)c(-c3ccc(F)cc3)oc12
MIC (Nakaseomyces glabratus [1]): 12.5 to 50 µg/mL (≈ 35.5 to 142 µM)
MIC (Candida albicans [2]): 12.5 to 50 µg/mL (≈ 35.5 to 142 µM)
Ratio (Candida tropicalis [3]): 8 - 64
Ratio (Nakaseomyces glabratus [4]): 8 - 64
MIC (Candida tropicalis [5]): 12.5 to 50 µg/mL (≈ 35.5 to 142 µM)

SMILES: O=[N+]([O-])c1ccc(OCc2cn(Cc3ccc(-c4ccccc4-c4nnn[nH]4)cc3)nn2)cc1
zone of inhibition at 25 µg/mL (Candida albicans [6]): 11 to 18 mm
zone of inhibition at 25 µg/mL (Aspergillus fumigatus [7]): 11 to 18 mm
zone of inhibition at 25 µg/mL (Aspergillus flavus [8]): 11 to 18 mm
zone of inhibition at 25 µg/mL (Aspergillus niger [9]): 11 to 18 mm

SMILES: COc1ccc(OC)c(C(=O)CSc2nc3ccccc3c3nnnn23)c1
zone of inhibition at 100 µg/mL (Candida albicans [15]): 22 mm

SMILES: Clc1ccccc1OCc1cn(Cc2ccc(-c3ccccc3-c3nnn[nH]3)cc2)nn1
zone of inhibition at 25 µg/mL (Candida albicans [6]): 11 to 18 mm
zone of inhibition at 25 µg/mL (Aspergillus fumigatus [7]): 11 to 18 mm
zone of inhibition at 25 µg/mL (Aspergillus flavus [8]): 11 to 18 mm
zone of inhibition at 25 µg/mL (Aspergillus niger [9]): 11 to 18 mm

SMILES: CCn1nnnc1SCCCSc1nnnn1-c1ccccc1
MIC (Talaromyces marneffei): 6.25 to 50 µg/mL (≈ 17.9 to 143 µM)
MIC (Aspergillus fumigatus [16]): 6.25 to 50 µg/mL (≈ 17.9 to 143 µM)
MIC (Aspergillus flavus [17]): 6.25 to 50 µg/mL (≈ 17.9 to 143 µM)
MIC [18]: 6.25 to 50 µg/mL (≈ 17.9 to 143 µM)

SMILES: Cc1cccc(OCc2cn(Cc3ccc(-c4ccccc4-c4nnn[nH]4)cc3)nn2)c1
zone of inhibition at 25 µg/mL (Candida albicans [6]): 11 to 18 mm
zone of inhibition at 25 µg/mL (Aspergillus fumigatus [7]): 11 to 18 mm
zone of inhibition at 25 µg/mL (Aspergillus flavus [8]): 11 to 18 mm
zone of inhibition at 25 µg/mL (Aspergillus niger [9]): 11 to 18 mm

SMILES: Cc1ccc(C2c3ccc4ccccc4c3Oc3[nH]c(=S)n4nnnc4c32)cc1 (configuration not stated)
MIC (Candida albicans [13]): 50 to 400 µg/mL (≈ 126 to 1010 µM)
MIC (Aspergillus niger [14]): 50 to 400 µg/mL (≈ 126 to 1010 µM)

SMILES: Cc1ccccc1OCc1cn(Cc2ccc(-c3ccccc3-c3nnn[nH]3)cc2)nn1
zone of inhibition at 25 µg/mL (Candida albicans [6]): 11 to 18 mm
zone of inhibition at 25 µg/mL (Aspergillus fumigatus [7]): 11 to 18 mm
zone of inhibition at 25 µg/mL (Aspergillus flavus [8]): 11 to 18 mm
zone of inhibition at 25 µg/mL (Aspergillus niger [9]): 11 to 18 mm

SMILES: C[C@@H]1[C@H](O)[C@@H](C)/C=C/C=C/C=C/C=C/C=C/C=C/C=C/[C@H](O[C@@H]2O[C@H](C)[C@@H](O)[C@H](N)[C@@H]2O)C[C@@H]2O[C@](O)(C[C@@H](O)C[C@@H](O)[C@H](O)CC[C@@H](O)C[C@@H](O)CC(=O)O[C@H]1C)C[C@H](O)[C@H]2C(=O)O [AMPHOTERICIN B]
MIC (Candida albicans [19]): < 0.48 µg/mL

SMILES: CC(=O)N1N=C(Cn2cc(-c3nn(-c4ccncc4)cc3-c3nnnn3-c3ccc(C(F)(F)F)cc3)c3cc(Cl)ccc32)OC1(C)c1ccc(Br)cc1 (configuration not stated)
zone of inhibition at 500 µg/mL (Candida albicans [20]): 11 to 20 mm
zone of inhibition at 500 µg/mL (Aspergillus niger [21]): 11 to 20 mm

SMILES: O=C(CSc1nc2ccccc2c2nnnn12)c1ccccc1
zone of inhibition at 100 µg/mL (Candida albicans [15]): 6 to 22 mm

SMILES: CC(=O)N1N=C(Cn2cc(-c3nn(-c4ccncc4)cc3-c3nnnn3-c3ccc(C(F)(F)F)cc3)c3cc(Cl)ccc32)OC1(C)c1ccc(C)cc1 (configuration not stated)
zone of inhibition at 500 µg/mL (Candida albicans [20]): 11 to 20 mm
zone of inhibition at 500 µg/mL (Aspergillus niger [21]): 11 to 20 mm

SMILES: O=c1c(OCc2nnn[nH]2)c(-c2ccc(F)cc2)oc2ccccc12
MIC (Nakaseomyces glabratus [1]): 12.5 to 50 µg/mL (≈ 36.9 to 148 µM)
MIC (Candida albicans [2]): 12.5 to 25 µg/mL (≈ 36.9 to 73.9 µM)
Ratio (Candida tropicalis [3]): 16 - 64
Ratio (Nakaseomyces glabratus [4]): 16 - 64
MIC (Candida tropicalis [5]): 12.5 to 50 µg/mL (≈ 36.9 to 148 µM)

SMILES: Cc1ccc(C(=O)CSc2nc3ccccc3c3nnnn23)cc1
zone of inhibition at 100 µg/mL (Candida albicans [15]): 6 to 22 mm

SMILES: CC(C)NCCSc1nc2ccccc2c2nnnn12
zone of inhibition at 100 µg/mL (Candida albicans [15]): 6 to 22 mm

SMILES: CC(=O)N1N=C(Cn2cc(-c3nn(-c4ccncc4)cc3-c3nnnn3-c3ccc(C(F)(F)F)cc3)c3cc(Cl)ccc32)OC1(C)c1ccc(Cl)cc1 (configuration not stated)
zone of inhibition at 500 µg/mL (Candida albicans [20]): 11 to 20 mm
zone of inhibition at 500 µg/mL (Aspergillus niger [21]): 11 to 20 mm

Second part, led by results:

MIC (Nakaseomyces glabratus [1]): 12.5 to 50 µg/mL (≈ 30.7 to 123 µM)
MIC (Candida albicans [2]): 12.5 to 50 µg/mL (≈ 30.7 to 123 µM)
MIC (Candida tropicalis [5]): 12.5 to 50 µg/mL (≈ 30.7 to 123 µM)
SMILES: O=c1c(OCc2nnn[nH]2)c(-c2ccc(F)cc2)oc2c(Cl)cc(Cl)cc12
Ratio (Candida tropicalis [3]): 8 - 64
Ratio (Nakaseomyces glabratus [4]): 8 - 64

MIC (Mucor indicus): 6.25 to 100 µg/mL (≈ 11.3 to 181 µM)
MIC (Candida albicans [10]): 6.25 to 100 µg/mL (≈ 11.3 to 181 µM)
MIC (Aspergillus flavus [11]): 6.25 to 100 µg/mL (≈ 11.3 to 181 µM)
MIC (Aspergillus niger [12]): 6.25 to 100 µg/mL (≈ 11.3 to 181 µM)
MIC (Rhizopus arrhizus): 6.25 to 100 µg/mL (≈ 11.3 to 181 µM)
SMILES: O=C(O)c1cn(C2CC2)c2nc(N3CCN(CC(=O)c4nnnn4-c4ccc(Cl)cc4)CC3)c(F)cc2c1=O

MIC (Mucor indicus): 6.25 to 100 µg/mL (≈ 11.4 to 182 µM)
MIC (Candida albicans [10]): 6.25 to 100 µg/mL (≈ 11.4 to 182 µM)
MIC (Aspergillus flavus [11]): 6.25 to 100 µg/mL (≈ 11.4 to 182 µM)
MIC (Aspergillus niger [12]): 6.25 to 100 µg/mL (≈ 11.4 to 182 µM)
MIC (Rhizopus arrhizus): 6.25 to 100 µg/mL (≈ 11.4 to 182 µM)
SMILES: COc1ccc(-n2nnnc2C(=O)CN2CCN(c3nc4c(cc3F)c(=O)c(C(=O)O)cn4C3CC3)CC2)cc1

MIC (Candida albicans [13]): 50 to 400 µg/mL (≈ 120 to 957 µM)
MIC (Aspergillus niger [14]): 50 to 400 µg/mL (≈ 120 to 957 µM)
SMILES: S=c1[nH]c2c(c3nnnn13)C(c1ccc(Cl)cc1)c1ccc3ccccc3c1O2 (configuration not stated)

MIC (Candida albicans [13]): 50 to 400 µg/mL (≈ 125 to 996 µM)
MIC (Aspergillus niger [14]): 50 to 400 µg/mL (≈ 125 to 996 µM)
SMILES: Fc1ccc(C2c3ccc4ccccc4c3Oc3[nH]c(=S)n4nnnc4c32)cc1 (configuration not stated)

MIC (Mucor indicus): 6.25 to 100 µg/mL (≈ 11.1 to 177 µM)
MIC (Candida albicans [10]): 6.25 to 100 µg/mL (≈ 11.1 to 177 µM)
MIC (Aspergillus flavus [11]): 6.25 to 100 µg/mL (≈ 11.1 to 177 µM)
MIC (Aspergillus niger [12]): 6.25 µg/mL (≈ 11.1 µM)
MIC (Rhizopus arrhizus): 6.25 to 100 µg/mL (≈ 11.1 to 177 µM)
SMILES: O=C(O)c1cn(C2CC2)c2nc(N3CCN(CC(=O)c4nnnn4-c4ccc([N+](=O)[O-])cc4)CC3)c(F)cc2c1=O

MIC (Nakaseomyces glabratus [1]): 12.5 to 50 µg/mL (≈ 32.3 to 129 µM)
MIC (Candida albicans [2]): 12.5 to 25 µg/mL (≈ 32.3 to 64.6 µM)
MIC (Candida tropicalis [5]): 12.5 to 50 µg/mL (≈ 32.3 to 129 µM)
SMILES: Cc1cc2oc(-c3ccc(F)cc3)c(OCc3nnn[nH]3)c(=O)c2cc1Cl
Ratio (Candida tropicalis [3]): 16 - 64
Ratio (Nakaseomyces glabratus [4]): 16 - 64

MIC (Nakaseomyces glabratus [1]): 12.5 to 50 µg/mL (≈ 33.5 to 134 µM)
MIC (Candida albicans [2]): 12.5 to 25 µg/mL (≈ 33.5 to 67.1 µM)
MIC (Candida tropicalis [5]): 12.5 to 50 µg/mL (≈ 33.5 to 134 µM)
SMILES: O=c1c(OCc2nnn[nH]2)c(-c2ccc(F)cc2)oc2ccc(Cl)cc12
Ratio (Candida tropicalis [3]): 16 - 64
Ratio (Nakaseomyces glabratus [4]): 16 - 64
